{"source": "patent US20050113452A1", "about": "“Composition and dosage form for sustained effect of levodopa” (priority 2003, published 2005)", "origin": "cited, not measured here", "test_system": "Parkinson's disease patients", "details": "especially when the two drugs are delivered together, Camicioli et al. 2001", "data": [{"smiles": "COC(=O)C(c1ccccc1)C1CCCCN1", "note": "(stereo not shown) [Methylphenidate, methylphenidate]", "values": [{"measurement": "Motor effects when used with levodopa", "result": "severe dyskinesia"}]}]}
